Experimental data: US12679878B2, “CRF2 receptor agonists and their use in therapy” (SANOFI, priority 2020, dated 2026)
Values after ≈ are worked out from the molar mass of the structure shown. Read-outs that look alike come from different tables or passages of the source. Starred links: 1 amine or outer side, 2 acyl side, 3 side chain; linkers in the order of their positions; H or OH if unused. Non-standard residues stand in square brackets, D forms with d. Residues, ends and D or L forms follow the SMILES beside them. Groups on a side chain read outwards from the residue. *: point of attachment. C16 diacid = O=C(O)CCCCCCCCCCCCCCC(=O)*; γGlu = O=C(O)[C@H](CCC(=O)[*:2])N[*:1]; Palmitoyl = CCCCCCCCCCCCCCCC(=O)*; Aib = CC(C)(N)C(=O)O

Experiments:
[1] = target: T1, CRF2R (Homo sapiens, UniProt Q13324); test: EC50 [nM] CRF2R
T1 construct: expressed in transfected cells; host or cells: TeloHEAC
Source text: Table printed on a drawing sheet, Fig. 3
Head of the field: EC50 [nM] CRF2R
The patent's description of the figure: FIG. 3: Representative sequences from peptides according to the invention with an optimized stability profile, wherein K[sema] stands for K[gGlu-C(O)(CH2)14CH3]
First copying reader's note: Second half (positions 13-38, C-term and activity) of the first table; the rows follow the same order, so the four rows of Peptide Seq. 1 are Patent Sequence N° 130, 171, 172 and 173.
Where the first naming reader finds the target: head: EC50 [nM] CRF2R

[2] = target: T2, CRF1R receptor (Homo sapiens, UniProt P34998); test: cAMP activity at anti-target CRF1R, CHO-K1 cell line clone 2 (Example 19.10); type: cell-based
T2 construct: host or cells: CHO-K1 clone 2
T2 sequence (P34998 24-415): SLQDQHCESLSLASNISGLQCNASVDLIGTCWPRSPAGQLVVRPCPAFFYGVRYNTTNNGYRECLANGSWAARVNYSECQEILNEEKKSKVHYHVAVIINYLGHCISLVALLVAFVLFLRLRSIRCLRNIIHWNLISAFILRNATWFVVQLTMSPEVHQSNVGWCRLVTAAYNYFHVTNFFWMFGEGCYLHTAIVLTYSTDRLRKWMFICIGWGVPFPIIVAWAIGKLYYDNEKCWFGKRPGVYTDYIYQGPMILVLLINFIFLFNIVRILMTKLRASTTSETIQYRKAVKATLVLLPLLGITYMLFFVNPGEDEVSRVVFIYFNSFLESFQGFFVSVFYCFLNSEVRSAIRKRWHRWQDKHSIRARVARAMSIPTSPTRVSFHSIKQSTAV
Procedure, shortened: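 A CRF1R-overexpressing CHO-K1 line (clone 2) was grown in F12/10% FBS/G418 and frozen in aliquots before use. The cAMP assay followed the preceding procedure, with 100% activation defined by Sauvagine at 100 nM.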

[3] = Buffer solubility by LC-UV, pH 7.4 phosphate and pH 4.5 acetate (Example 19.11); type: physicochemical; settings: target 10 mg/mL
Procedure: As for example 15 above, also the chemical stability of representative examples of these FA modified peptides has been assessed, using LC-UV instead of light scattering. Solubility and chemical stability were studied in 100 mM phosphate buffer (pH 7.4) and 100 mM acetate buffer (pH 4.5). Test compound powders were dissolved in both buffers at a target concentration of 10 mg/mL and incubated for 1 hour at room temperature. After centrifugation at 2500 rcf for 15 minutes, […] of supernatant was diluted with […] of the incubation buffer and analyzed by LC-UV (Acquity UPLC-DAD, Waters). Solubility was calculated by comparing the peak area of the test compound in the buffer sample with the peak area of the same compound dissolved at 0.5 mg/ml in water:acetonitrile 1:1, 0.1% formic acid.

[4] = In vitro plasma stability, human plasma (Example 19.11); type: in vitro ADME; set-up: dose or concentration left out as unconfirmed; settings: 37° C.
Procedure: (§1) In vitro plasma metabolic stability was studied in male Sprague Dawley rats and human. Test compound were incubated […] for 2 hours at 37° C. At each time point (0, 0.25, 1 and 2 h), samples were prepared for analysis by means of a single step protein precipitation technique by adding 150 μL of ethanol, 0.1% formic acid to 50 μL aliquots of plasma. Samples were mixed by vortex for homogeneity and then subjected to centrifugation at 14000 rpm for 15 min. The supernatant (100 μL) was collected, diluted with 100 μL of water, 0.1% formic acid and analyzed by LC-HRMS (TripleTOF 6600+, AB Sciex). For each test compound, the area ratios at each time point were compared to the 0 h area ratio and converted to a percentage remaining.

[5] = target: T3, human CRF2α receptor (Homo sapiens, UniProt Q13324); test: cAMP agonism at human CRF2α receptor in TeloHEAC cells, FA modified peptides (Example 19.9); type: cell-based; settings: 0% HSA, relative to urocortin 2
T3 construct: expressed in transfected cells; host or cells: TeloHEAC
T3 sequence (Q13324 1-411): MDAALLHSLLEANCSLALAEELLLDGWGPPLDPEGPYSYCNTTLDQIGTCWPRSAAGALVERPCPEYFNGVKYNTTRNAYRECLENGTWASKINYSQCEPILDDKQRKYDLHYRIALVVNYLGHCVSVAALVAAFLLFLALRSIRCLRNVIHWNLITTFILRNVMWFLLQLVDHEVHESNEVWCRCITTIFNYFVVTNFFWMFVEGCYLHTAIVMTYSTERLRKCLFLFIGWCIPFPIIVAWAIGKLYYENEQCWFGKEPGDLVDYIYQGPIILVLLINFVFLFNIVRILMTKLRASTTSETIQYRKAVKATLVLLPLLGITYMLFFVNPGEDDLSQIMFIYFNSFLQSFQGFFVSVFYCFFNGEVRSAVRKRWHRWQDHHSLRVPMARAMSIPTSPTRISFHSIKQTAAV
Procedure, shortened: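 Efficacy and EC50 are referenced to 100 nM urocortin 2 as 100%, with cAMP measured as the 665/620 nm HTRF ratio after 1 h at room temperature. Compounds (0.5 mM DMSO stock, 16 twofold dilutions) acted 30 min at 37 °C on CRF2α-expressing TeloHEAC cells, buffer containing IBMX and 0% or 0.2% HSA.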

[6] = In vitro plasma stability, rat plasma (Example 19.11); type: in vitro ADME, Sprague Dawley rats; set-up: remaining at 2 h: dose or concentration left out as unconfirmed; settings: male, Sprague Dawley, rat, plasma, 37° C.
Procedure: as §1

Question: Which EC50 [1] does the source give for `CCCCCCCCCCCCCCCC(=O)N[C@@H](CCC(=O)NCCCC[C@H](NC(=O)[C@H](CC(C)C)NC(=O)CNC(=O)[C@@H](NC(=O)[C@@H]1CCCN1C(=O)[C@@H](NC(=O)[C@H](CC(=O)O)NC(=O)[C@H](CC(C)C)NC(=O)[C@H](CO)NC(=O)[C@H](CC(C)C)NC(=O)[C@@H](NC(=O)[C@@H](N)[C@@H](C)CC)C(C)C)C(C)C)[C@@H](C)CC)C(=O)N[C@@H](CCC(N)=O)C(=O)N[C@@H](CCCCN)C(=O)N[C@@H](CC(C)C)C(=O)N[C@@H](CC(C)C)C(=O)N[C@@H](CCCCN)C(=O)N[C@@H](CCC(N)=O)C(=O)N[C@@H](CCC(N)=O)C(=O)N[C@@H](CCCNC(=N)N)C(=O)N[C@@H](CCC(N)=O)C(=O)N[C@@H](CCCNC(=N)N)C(=O)N[C@@H](CCCCN)C(=O)N[C@@H](CCC(=O)O)C(=O)N[C@@H](CCCNC(=N)N)C(=O)N[C@@H](CCC(N)=O)C(=O)N[C@@H](CCC(N)=O)C(=O)N[C@@H](C)C(=O)N[C@@H](CCC(=O)O)C(=O)N[C@@H](CCCCN)C(=O)N[C@@H](CC(N)=O)C(=O)N[C@@H](C)C(=O)N[C@@H](CCCNC(=N)N)C(=O)N[C@H](C(=O)N[C@@H](CC(C)C)C(=O)N[C@@H](C)C(=O)N[C@@H](CCCNC(=N)N)C(=O)N[C@H](C(N)=O)C(C)C)[C@@H](C)CC)C(=O)O` [SEQ ID NO: 6] (H-IVLSLDVPIGLK([γGlu-Palmitoyl])QKLLKQQRQRKERQQAEKNARILARV-NH2) here?
Answer: 0.06 nM

Question: Which EC50 [1] does the source give for `CCCCCCCCCCCCCCCC(=O)N[C@@H](CCC(=O)NCCCC[C@H](NC(=O)[C@@H](NC(=O)[C@H](CCCCN)NC(=O)[C@@H](NC(=O)[C@@H]1CCCN1C(=O)[C@@H](NC(=O)[C@H](CC(=O)O)NC(=O)[C@H](CC(C)C)NC(=O)[C@H](CO)NC(=O)[C@H](CC(C)C)NC(=O)[C@@H](NC(=O)[C@@H](N)Cc1ccccc1)[C@@H](C)O)C(C)C)[C@@H](C)O)[C@@H](C)CC)C(=O)N[C@@H](CCC(N)=O)C(=O)N[C@@H](CCCCN)C(=O)N[C@@H](CC(C)C)C(=O)N[C@@H](CC(C)C)C(=O)N[C@@H](CCCCN)C(=O)N[C@@H](CCC(N)=O)C(=O)N[C@@H](CCC(=O)O)C(=O)N[C@@H](CCCCN)C(=O)N[C@@H](CCC(N)=O)C(=O)N[C@@H](CCCCN)C(=O)N[C@@H](CCCCN)C(=O)N[C@@H](CCC(N)=O)C(=O)N[C@@H](CCCNC(=N)N)C(=O)N[C@@H](CCC(N)=O)C(=O)N[C@@H](CCCCN)C(=O)N[C@@H](C)C(=O)N[C@@H](CCCCN)C(=O)N[C@H](C(=O)N[C@@H](C)C(=O)N[C@@H](C)C(=O)N[C@@H](CCC(N)=O)C(=O)N[C@H](C(=O)N[C@@H](CC(C)C)C(=O)N[C@@H](C)C(=O)N[C@@H](CCC(N)=O)C(=O)N[C@H](C(N)=O)C(C)C)[C@@H](C)CC)[C@@H](C)O)C(=O)O` [SEQ ID NO: 8] (H-FTLSLDVPTKIK([γGlu-Palmitoyl])QKLLKQEKQKKQRQKAKTAAQILAQV-NH2) here?
Answer: 0.18 nM

Question: Which EC50 [1] does the source give for `CCCCCCCCCCCCCCCC(=O)N[C@@H](CCC(=O)NCCCC[C@H](NC(=O)[C@@H](NC(=O)[C@H](CCCCN)NC(=O)[C@@H](NC(=O)[C@@H]1CCCN1C(=O)[C@@H](NC(=O)[C@H](CC(=O)O)NC(=O)[C@H](CC(C)C)NC(=O)[C@H](CO)NC(=O)[C@H](CC(C)C)NC(=O)[C@@H](NC(=O)[C@@H](N)Cc1ccccc1)[C@@H](C)O)C(C)C)[C@@H](C)O)[C@@H](C)CC)C(=O)N[C@@H](CCC(N)=O)C(=O)N[C@@H](CCCCN)C(=O)N[C@@H](CC(C)C)C(=O)N[C@@H](CC(C)C)C(=O)N[C@@H](CCCCN)C(=O)N[C@@H](CCC(N)=O)C(=O)N[C@@H](CCC(=O)O)C(=O)N[C@@H](CCCCN)C(=O)N[C@@H](CCC(N)=O)C(=O)N[C@@H](CCCCN)C(=O)N[C@@H](CCCCN)C(=O)N[C@@H](CCC(N)=O)C(=O)N[C@@H](CCCNC(=N)N)C(=O)N[C@@H](CCC(N)=O)C(=O)N[C@@H](CCCCN)C(=O)N[C@@H](C)C(=O)N[C@@H](CCCCN)C(=O)N[C@H](C(=O)N[C@@H](C)C(=O)N[C@@H](CCCCN)C(=O)N[C@@H](CCC(N)=O)C(=O)N[C@H](C(=O)N[C@@H](CC(C)C)C(=O)N[C@@H](CCC(=O)O)C(=O)N[C@@H](CCC(N)=O)C(=O)N[C@H](C(N)=O)C(C)C)[C@@H](C)CC)[C@@H](C)O)C(=O)O` [SEQ ID NO: 9] (H-FTLSLDVPTKIK([γGlu-Palmitoyl])QKLLKQEKQKKQRQKAKTAKQILEQV-NH2) here?
Answer: 0.08 nM

Question: With `CC[C@H](C)[C@H](N)C(=O)N[C@H](C(=O)N[C@@H](CC(C)C)C(=O)N[C@@H](CO)C(=O)N[C@@H](CC(C)C)C(=O)N[C@@H](CC(=O)O)C(=O)N[C@@H](C(=O)N1CCC[C@H]1C(=O)N[C@H](C(=O)NCC(=O)N[C@@H](CC(C)C)C(=O)N[C@@H](CCCCNC(=O)CC[C@H](NC(=O)CCCCCCCCCCCCCCC(=O)O)C(=O)O)C(=O)N[C@@H](CCC(N)=O)C(=O)N[C@H](C(=O)N[C@@H](CC(C)C)C(=O)N[C@@H](CC(C)C)C(=O)N[C@@H](CCCCN)C(=O)N[C@@H](CCC(N)=O)C(=O)N[C@@H](CCC(=O)O)C(=O)N[C@@H](CCCNC(=N)N)C(=O)N[C@@H](CCC(N)=O)C(=O)N[C@@H](CCCCN)C(=O)N[C@@H](CCCCN)C(=O)NC(C)(C)C(=O)N[C@@H](CCCNC(=N)N)C(=O)N[C@@H](CCC(=O)O)C(=O)N[C@@H](CCC(N)=O)C(=O)N[C@@H](C)C(=O)N[C@@H](CCC(=O)O)C(=O)N[C@H](C(=O)N[C@@H](CC(N)=O)C(=O)N[C@@H](CCCCN)C(=O)N[C@@H](CCCNC(=N)N)C(=O)N[C@H](C(=O)N[C@@H](CC(C)C)C(=O)N[C@@H](CCC(=O)O)C(=O)N[C@@H](CCCNC(=N)N)C(=O)N[C@H](C(N)=O)C(C)C)[C@@H](C)CC)[C@@H](C)O)[C@@H](C)CC)[C@@H](C)CC)C(C)C)C(C)C` [compound 193] (H-IVLSLD[dV]PIGLK([γGlu-C16 diacid])QILLKQERQKK[Aib]REQAETNKRILERV-NH2) as the molecule, how does the EC50 ([2]; 0% HSA, CRF1R CHO-K1 clone 2, read-out: EC50 [nM] 0% HSA) read?
Answer: > 100 nM

Question: What about the Emax ([2]; 100% = Sauvagine at 100 nM, CRF1R CHO-K1 clone 2) of the same molecule?
Answer: 8.77%

Question: And the EC50 ([2]; Table 20 side-to-side comparison, read-out: CRF1 EC50)?
Answer: > 100 nM

Question: And the CRF1/CRF2 ratio ([2]; ratio of CRF1 EC50 to CRF2 EC50)?
Answer: >500

Question: And the solubility at 1 h ([3]; pH 4.5, 100 mM acetate buffer)?
Answer: 8600 µg/mL (≈ 1770 µM)

Question: And the solubility at 1 h ([3]; pH 7.4, 100 mM phosphate buffer)?
Answer: 100 µg/mL (≈ 20.6 µM)

Question: What about the remaining at 2 h [4] of the same molecule?
Answer: 80%

Question: What about the EC50 [5] of the same molecule?
Answer: 0.82 nM

Question: What about the remaining at 2 h [6] of the same molecule?
Answer: 84%
